Measured values reported in US20090233965A1, “Alkyl Esters Of Cyclic Amino Alcohols With Muscarinic M3 Receptor Antagonist Activity, Useful For Treating E.G. Chronic Bronchial Obstruction, Asthma And Overactive Bladder” (priority 2006, published 2009).
Read-outs that look alike come from different tables or passages of the source.

Target: human muscarinic acetylcholine M3 receptor (M3-ACh) (Homo sapiens, UniProt P20309)
Assay: M3 Receptor Activity Assay: competition binding of [3H]N-methyl scopolamine, SPA format
[1] = competition binding of [3H]NMS at 0.2 nM to CHO-K1 cell membranes expressing human M3 receptor, 16 hours at room temperature, read-out: pIC50 (converted)

Chain of human muscarinic acetylcholine M3 receptor (M3-ACh) (P20309 whole entry): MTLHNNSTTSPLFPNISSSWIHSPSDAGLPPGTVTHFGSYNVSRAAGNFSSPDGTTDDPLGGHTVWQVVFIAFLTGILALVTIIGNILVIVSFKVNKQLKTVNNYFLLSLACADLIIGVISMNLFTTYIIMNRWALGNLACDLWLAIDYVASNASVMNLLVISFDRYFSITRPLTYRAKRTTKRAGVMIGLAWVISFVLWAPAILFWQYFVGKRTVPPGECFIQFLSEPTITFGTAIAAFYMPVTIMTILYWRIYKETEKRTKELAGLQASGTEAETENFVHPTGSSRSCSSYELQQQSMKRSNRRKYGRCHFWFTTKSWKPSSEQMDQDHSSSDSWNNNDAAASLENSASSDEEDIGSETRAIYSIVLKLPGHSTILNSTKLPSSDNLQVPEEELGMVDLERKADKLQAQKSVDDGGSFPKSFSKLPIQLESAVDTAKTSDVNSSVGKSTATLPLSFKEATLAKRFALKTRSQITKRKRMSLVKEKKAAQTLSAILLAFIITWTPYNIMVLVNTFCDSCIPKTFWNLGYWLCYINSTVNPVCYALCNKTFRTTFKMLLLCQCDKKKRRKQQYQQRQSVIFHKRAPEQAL
Protocol: The assay was conducted in a final volume of 200 μL, in the presence of 1% (v/v) dimethyl sulphoxide (DMSO). Total binding of [^3H]NMS was determined in the absence of competing compound and non-specific binding of [3H]NMS was determined in the presence of 1 μM atropine. The plates were incubated for 16 hours at room temperature and then read on Wallac Microbeta™ using a normalised ^3H protocol.

SMILES | IC50 [1] [nM] | IC50 [nM]
Cc1ccc(C(C)(C(=O)OC2CC[N+](C)(C)CC2)C2CCCC2)s1 (stereo not drawn) [Example 9, 4-{[2-Cyclopentyl-2-(5-methyl-2-thienyl)propanoyl]oxy}-1,1-dimethylpiperidinium iodide] | 0.0794 | 
CC(C(=O)OC1CC[N+](C)(C)CC1)(c1ccccc1)C1CC1 (stereo not drawn) [Example 3, 4-[(2-Cyclopropyl-2-phenylpropanoyl)oxy]-1,1-dimethylpiperidinium iodide] |  | 0.398
CC(C(=O)OC1CC[N+](C)(C)CC1)(c1ccc(Cl)cc1)C1CCCC1 (stereo not drawn) [Example 19, 4-{[2-(4-Chlorophenyl)-2-cyclopentylpropanoyl]oxy}-1,1-dimethylpiperidinium iodide] | 0.2 | 
